Experimental findings from paper PMC11432330, “Novel Drug-like HsrA Inhibitors Exhibit Potent Narrow-Spectrum Antimicrobial Activities against Helicobacter pylori” (International Journal of Molecular Sciences, 2024) are described below.

For assay [1], the target named is T1, C. jejuni response regulator CosR (Campylobacter jejuni, UniProt Q0PBF4). Briefly: EMSA: inhibition of in vitro DNA binding activity of CosR to promoter PsodB. The format is biochemical. As to conditions: 700 nM CosR, ligand 0.1-2 mM. The procedure:
The DNA binding activities of recombinant HsrA and CosR were assessed in vitro by electrophoretic mobility shift assays (EMSAs). A 300-bp promoter region of the H. pylori 26695 operon porGDAB was used as the target sequence of HsrA in all EMSA experiments. Likewise, a 420-bp sequence of the C. jejuni sodB promoter (ATCC 33560) was used as the target DNA of CosR [90]. The oligonucleotides used for the synthesis of these promoter regions are described in Supplementary Table S4. Response regulators HsrA (6 μM) or CosR (700 nM) were mixed with 120 ng of their target promoters in a reaction buffer of 10 mM bis-Tris (pH 7.5), 40 mM KCl, 100 mg/L BSA, 1 mM DTT, and 5% glycerol. For the in vitro inhibition analyses, mixtures of target DNA and response regulator were exposed to 2, 1, 0.5, and 0.1 mM of each compound of interest, incubated at room temperature for 20 min, and then separated on a 6% non-denaturing electrophoresis. DMSO instead of inhibitors was included as a vehicle control, while an internal sequence of the Anabaena sp. pkn22 gene was used as the non-specific competitor in all assays. For DNA-protein binding visualization, gels were stained with the SYBR Safe DNA gel stain (Invitrogen) and analyzed with a Gel Doc 2000 Image Analyzer (Bio-Rad).
(In EMSA bound probe runs differently from free probe, usually more slowly.)

The target of assay [2] is T1, C. jejuni response regulator CosR. Nature of the assay: Isothermal titration calorimetry (ITC) with CosR. The format is binding. As to the method:
Molecular interactions of the selected ligands with proteins HsrA or CosR were studied by isothermal titration calorimetry (ITC), as previously described. Titrations were assessed in a high-sensitivity MicroCal Auto-iTC200 calorimeter (Malvern Panalytical, Malvern, UK). Experiments were carried out at 25 °C in freshly prepared buffer containing 50 mM Tris-HCl [pH 8], 150 mM NaCl, 10% glycerol, and 1% DMSO. A 20 µM solution of protein was located in the calorimetric cell. Then, a sequence of 19 injections of 2 µL volume each with a 200 µM solution of the corresponding ligand was programmed with a time spacing of 150 s, a stirring speed of 750 rpm, and a reference power of 10 µcal/s in the sample cell. Thermodynamic properties such as binding stoichiometry, dissociation constants, and binding enthalpies were calculated by nonlinear least-squares regression data analysis using Origin 7.0 software.

For a further assay, the system named is H. pylori HsrA. Nature of the assay: Fluorescence-based thermal shift assay (HTS of Maybridge HitFinder library) for HsrA ligands. The assay is classed as binding, Helicobacter pylori. As to conditions: 10 µM HsrA, 250 μM compound, vs DMSO controls. The procedure:
High-throughput screening (HTS) of the Maybridge HitFinder^TM chemical library for H. pylori HsrA ligands was assessed by a fluorescence-based thermal shift assay, according to previously described procedures. Briefly, a reaction mixture containing 50 mM Tris-HCl (pH 8), 150 mM NaCl, 10% glycerol, 5 mM DTT, SYPRO® Orange ready-to-use fluorescent stain (Thermo Fisher Scientific) at a final concentration of 10 ×, and 10 µM HsrA was freshly prepared. Next, 90 μL was dispensed in every well of V-shape 96-well plates ABgene^TM Thermo-Fast^TM 96 (Thermo Fisher Scientific). Wells of columns 1 and 12 received 10 μL of DMSO (vehicle) and were used as the reference controls. The rest of the wells (columns 2 to 11) received 2.5 μL of four different compounds from the HitFinder library (250 μM as final concentration each). The unfolding curve corresponding to each well was registered from 25 °C to 75 °C in 1 °C steps using an Mx3005P™ qPCR System (Agilent Technologies, Inc., Santa Clara, CA, USA), and analyzed by Origin 7.0 (OriginLab, Northampton, MA, USA) using a homemade script that determined the midpoint temperature of unfolding (Tm).

T1 sequence (Q0PBF4 entry or part of it): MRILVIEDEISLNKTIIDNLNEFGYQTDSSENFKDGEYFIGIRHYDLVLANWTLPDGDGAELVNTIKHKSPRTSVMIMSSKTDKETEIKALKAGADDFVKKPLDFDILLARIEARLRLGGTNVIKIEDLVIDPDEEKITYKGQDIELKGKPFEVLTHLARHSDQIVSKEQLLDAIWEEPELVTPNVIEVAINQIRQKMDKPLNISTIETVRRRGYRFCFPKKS

Regarding `NC(=NOC(=O)Nc1ccc(Cl)cc1)c1csc([N+](=O)[O-])c1` [Ligand V, N′-{[(4-chloroanilino)carbonyl]}oxy-5-nitrothiophene-3-carboximidamide], the “Inhibition of in vitro DNA binding activity of CosR (EMSA)” value in assay [1] is on record as “noticeable inhibition”. Further, the ΔG in assay [2] (absolute error 0.1) is given as -6.2 kcal/mol. The ΔH in assay [2] (absolute error 0.4) is on record as -0.9 kcal/mol. The same molecule showed a dissociation constant (Kd) in assay [2] (relative error 15%) of 26 µM.
Consider `CSc1cccc(NC(=S)NCCNc2c([N+](=O)[O-])cc(C(F)(F)F)cc2[N+](=O)[O-])c1` [Ligand IV], for which the “ΔTm (upshift of midpoint temperature of unfolding of HsrA)” value in the assay with H. pylori HsrA stood at 16 °C.
The same measure, in the same setting: in the case of `N#C/C(=C\C=C\c1ccccc1)c1nc2ccccc2[nH]1` [Ligand XII] it was 9 °C.

As usually defined, the Kd is the free concentration of one partner at which half of the binding sites on the other are occupied at equilibrium, for simple one-to-one binding. High values mean weaker binding, low ones tighter binding.
